In patent publication US7488820B2, “Naphthofluorescein-based metal sensors, and methods of making and using the same” (Massachusetts Institute of Technology, priority 2004, dated 2009):

Legend:
[1] = Ratiometric fluorescence responses (F624/F528) of MS4 and MS5 to various metal ions; settings: 5 μM probe, 50 equiv metal ion, 50 mM HEPES, 100 mM KCl, pH 8, excitation 499 nm
Protocol: (§1) FIG. 9 depicts the ratiometric fluorescence spectroscopic responses of MS4 to various metal ions. Bars represent the ratio of fluorescence intensities collected at 624 and 528 nm (F624/F528). All spectra were acquired in 50 mM HEPES, 100 mM KCl, pH 8. Grey bars represent the addition of an excess of the appropriate metal ion (50 equiv metal ion of interest) to a 5 μM solution of MS4. Dark grey bars represent the subsequent addition of 50 equiv Hg^2+ to the solution. Excitation was provided at 499 nm.
as §1, with “FIG. 10” for “FIG. 9”, “of MS5” for “of MS4”, “of MS5.” for “of MS4.”
Millipore water was used to prepare all aqueous solutions. […] Fluorescence spectra were collected by using a Photon Technology International (Lawrenceville, N.J.) Quanta Master 4L-format scanning spectrofluorimeter equipped with an LPS-220B 75-W xenon lamp and power supply, A-1010B lamp housing with integrated igniter, switchable 814 photon-counting/analog PMT detector, and a MD-5020 motor driver. […]

[2] = Fluorescence spectroscopy: quantum yield and ratiometric emission response to Zn2+; assay type: physicochemical; settings: pH 7.5
Protocol: FIG. 3. Ratiometric fluorescence spectroscopic response of 20 μM ZNP1 to buffered Zn^2+ solutions. Spectra were acquired in 50 mM HEPES, 100 mM KCl, pH 7.5. Excitation was provided at 499 nm. A standard EDTA/Ca^2+/Zn^2+ dual-metal buffer system was employed to deliver controlled concentrations of buffered free Zn^2+. The spectra shown are for free Zn^2+ buffered at 0, 0.17, 0.42, 0.79, 1.3, 2.1, 3.4, 5.6, and 10.2 nM, respectively.
Quantum yield, Φ, may be obtained by comparison of the integrated area of the corrected emission spectrum of the sample with that of a reference solution. A preferred reference solution is a solution of fluorescein in 0.1 N NaOH, quantum efficiency 0.95. The concentration of the reference is adjusted to match the absorbance, Abs, of the test sample. The quantum yields may be calculated using the following equation:
ZNP1 was evaluated at physiological ionic strength and pH [50 mM HEPES (4-(2-hydroxyethyl)-1-piperazineethanesulfonic acid), 100 mM KCl, pH 7.5] in the presence of EDTA (ethylenediaminetetraacetic acid) to scavenge adventitious metal ions. […] The quantum yield for apo ZNP1 is 0.02.
The observed changes in absorption and emission spectra occur up to a 1:1 [Zn^2+][ZNP1] ratio, indicating the likely formation of a 1:1 complex. Upon addition of Zn^2+, the visible absorption profile of the ZNP1 chemosensor red shifts to a single broad peak centered at 547 nm (ε=2.2×10^4 M^−1cm^−1). Excitation at 499 nm produces a fluorescence spectrum featuring one dominant emission band centered at 624 nm with a minor component centered at 545 nm (FIG. 3). The quantum yield for Zn^2+-ZNP1 complex is 0.05. […] The ratio of naphthofluorescein- to fluorescein-like emission intensities (λ624/λ528) upon 499-nm excitation varies from 0.4 in the absence of Zn^2+ to 7.1 in the presence of Zn^2+, an 18-fold increase.
(§2) Millipore water was used to prepare all aqueous solutions, which were passed through 0.2 um cellulose filters prior to use. All spectroscopic measurements were performed under simulated physiological conditions using buffer solutions containing 50 mM HEPES, 4-(2-hydroxyethyl)-1-piperazineethanesulfonic acid, and 100 mM KCl adjusted to pH 7.5. A glass electrode (Orion), calibrated prior to each use, was used to determine solution pH. Solutions of Zn^2+ were prepared from 100 mM stock solutions of ZnCl2 in water. Absorption spectra were recorded on a Hewlett-Packard 8453A diode array spectrophotometer, and fluorescence spectra on a Photon Technology International (PTI) Quanta Master 4 L-format scanning spectrofluorimeter equipped with an LPS-220B 75-watt xenon lamp and power supply, A-1010B lamp housing with integrated igniter, switchable 814 photon-counting/analog photomultiplier detection unit, and MD-5020 motor driver. Samples for absorption and emission measurements were contained in 1 cm×1 cm quartz cuvettes (3.5 mL volume, Stama). The experiments for measuring quantum yields, apparent dissociation constants (Kd), and metal ion selectivities were performed by using standard protocols. Quantum yields were determined by reference to fluorescein in 0.1 N NaOH (Φ=0.95). Confocal fluorescence imaging experiments were performed with a Zeiss LSM510 laser scanning microscopy system containing an Axiovert 200M inverted fluorescence microscope. The microscope was equipped with an argon ion laser (488-nm excitation) and objective lenses (100×), and scanning was performed using the META detection system operating in lambda mode (Zeiss) with 10.7 nm collection windows. During imaging measurements, cell samples were kept on the microscope stage in a CTI-3700 incubator at 37° C. under 5% CO2. Additions of Zn^2+ as the pyrithione complex (2-mercaptopyridine N-oxide), TPEN [N,N,N′,N′-tetra(2-picolyl)ethylenediamine], or SNOC (S-nitrosocysteine) to cell samples were performed directly on the microscope stage by bath application to the media. SNOC was prepared immediately before use.

[3] = Metal ion selectivity of the ratiometric fluorescence response (F624/F528) of ZNP1
Protocol: FIG. 4. Ratiometric fluorescence spectroscopic responses of ZNP1 to various metal ions. Bars represent the ratio of fluorescence intensities collected at 624 and 528 nm (F624/F528). All spectra were acquired in 50 mM HEPES, 100 mM KCl, pH 7.5. White bars represent the addition of an excess of the appropriate metal ion (2 mM for Ca^2+ and Mg^2+, 100 μM for all other metal ions) to a 10 μM solution of ZNP1. Grey bars represent the subsequent addition of 100 μM Zn^2+ to the solution. Excitation was provided at 499 nm.
The emission profiles of apo or Zn^2+-bound ZNP1 are unperturbed in the presence of 2 mM Ca^2+ or Mg^2+, indicating a degree of selectivity for Zn^2+ over these biologically competing alkaline earth cations.
as §2, with “SNOC was prepared immediately before use.” left out

COS-7 cells = assay: Cell membrane permeability and ratio confocal fluorescence imaging of intracellular Zn2+ in live COS-7 cells; assay type: cell-based
Protocol: FIG. 5. Ratio confocal fluorescence imaging in COS-7 cells using the Zeiss LSM510 META system operating in the lambda mode. Fluorescence was collected in 10.7 nm optical windows centered at 612 and 526 nm. Pseudocolor figures depict the ratio of fluorescence intensities at these two emission wavelengths. (a) Ratio confocal fluorescence images of live COS-7 cells labeled with ZNP1. Incubation of cells with 20 μM ZNP1-Ac for 20 min at 37° C. (left), ZNP1-stained cells loaded with 50 μM Zn(pyrithione)2 for 5 min (middle), and reversal of the cytosolic ratio enhancements with 100 μM TPEN (right). Confocal images were taken from a middle optical section (vertical dimension) of the cell samples. (b) Confocal fluorescence images of NO-triggered release of endogenous Zn^2+ in live COS-7 cells. Incubation of cells with 20 μM ZNP1-Ac for 20 min at 37° C. (left), ZNP1-stained cells treated with 10 mM SNOC (S-nitrosocysteine, middle) for 1 hr, and reversal of the observed ratio increases with 2 mM TPEN (right). Confocal images were taken from a middle optical section (vertical dimension) of the cell samples.
We therefore prepared the non-fluorescent diacetate derivative of ZNP1, ZNP1-Ac, anticipating that this more lipophilic derivative would permeate the cell and be transformed to fluorescent ZNP1 by the action of intracellular esterases. […] Ratiometric fluorescence imaging of ZNP1-stained cells is readily performed by using the META detection system operating in lambda mode with optical windows centered at 612 and 526 nm. […] Prompt increases in the ratio of cytosolic fluorescence intensities collected at 612 and 526 nm are observed upon the addition of exogenous Zn^2+ (50 μM) carried by the ionophore pyrithione (2-mercaptopyridine N-oxide, FIG. 5a). […]
The successful use of ZNP1 for monitoring changes in intracellular Zn^2+ concentrations using ratiometric fluorescence imaging led us to apply this probe for detecting endogenous pools of intracellular Zn^2+. […]

| increase of λ624/λ528 emission ratio on Zn2+ binding ([2]; 499-nm excitation) | quantum yield, Zn2+ complex ([2]; Zn2+-bound, 50 mM HEPES, 100 mM KCl) | quantum yield, apo ([2]; no Zn2+, EDTA present, 50 mM HEPES, 100 mM KCl, reference fluorescein in 0.1 N NaOH) | permeability to cell membranes (COS-7 cells; initial experiments) | SMILES | selectivity for Hg2+ over other metal ions (in words) [1] | time of fluorescence response to buffered Zn2+ ([2]; 20 μM probe, free Zn2+ 0-10.2 nM) | ratio of emission intensities λ624/λ528 in the absence of Zn2+ ([2]; 499-nm excitation) | ratio of emission intensities λ624/λ528 in the presence of Zn2+ ([2]; 499-nm excitation) | selectivity for Zn2+ over other metal ions (in words) [3] | emission profiles of apo or Zn2+-bound probe in the presence of Ca2+ or Mg2+ ([3]; 10 μM probe, 2 mM Ca2+ or Mg2+, pH 7.5) | ratiometric response to subsequent addition of 100 μM Zn2+ in the presence of first-row transition metal ions ([3]; 10 μM probe, Cu2+, Ni2+, Co2+, Fe2+, Mn2+ 100 μM, then 100 μM Zn2+) | change in emission ratio with Cu2+, Ni2+, Co2+, Fe2+, Mn2+ ([3]; 10 μM probe, metal ions at 10-fold excess over probe) | monitoring of intracellular [Zn2+] changes (612/526 nm ratio) (COS-7 cells; stained COS-7 cells, 50 μM Zn2+/pyrithione, then 100 μM TPEN) | detection of NO-triggered release of endogenous Zn2+ (612/526 nm ratio) (COS-7 cells; stained COS-7 cells, 10 mM S-nitrosocysteine, reversed by 2 mM TPEN) |
| --- | --- | --- | --- | --- | --- | --- | --- | --- | --- | --- | --- | --- | --- | --- |
| – | – | – | – | CCSCCN(Cc1ccccn1)Cc1ccccc1NCc1c2oc3c(ccc4cc(O)ccc43)c(-c3ccccc3C(=O)O)c-2ccc1=O [MS4] | selectivity for Hg^2+ over metal ions such as Na^+, Ca^2+, and Mg^2+ | – | – | – | – | – | – | – | – | – |
| 18 fold | 0.05 | 0.02 | impermeable to cell membranes | O=C(O)c1ccccc1-c1c2ccc(=O)c(CNc3ccccc3CN(Cc3ccccn3)Cc3ccccn3)c-2oc2c1ccc1cc(O)ccc12 [ZNP1, 4-[12-{Bis(2-pyridylmethyl)aminomethyl}-N-methylaniline]-3,10-dibenzoate-spiro[7H-benzo[c]xanthen-7,1′(3′H)-isobenzofuran]-3′-one] | – | immediately upon mixing | 0.4 | 7.1 | selectivity for Zn^2+ over metal ions such as Na^+, K^+, Ca^2+, and Mg^2+ | unperturbed | only the sample containing Mn^2+ affords a ratiometric fluorescence response | no discernable change in emission ratios | can monitor changes in intracellular [Zn^2+] reversibly | establishes a rise in intracellular [Zn^2+] |
| – | – | – | – | CCSCCN(CCSCC)Cc1ccccc1NCc1c2oc3c(ccc4cc(O)ccc43)c(-c3ccccc3C(=O)O)c-2ccc1=O [MS5, 2-{11-[(2-{[Bis-(2-ethylsulfanylethyl)amino]methyl}phenylamino)methyl]-3-hydroxy-10-oxo-10H-benzo[c]xanthen-7-yl}benzoic acid] | selectivity for Hg^2+ over metal ions such as Na^+, Ca^2+, and Mg^2+ | – | – | – | – | – | – | – | – | – |
